Experimental data published in PubChem BioAssay (NCI).
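Briefly, cells in 96-well plates were exposed to five compound concentrations for 48 h, and endpoints were estimated by linear interpolation. TGI: concentration producing complete growth inhibition.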

Tests used:
Assay in all cases: NCI tumour cell line growth inhibition, 48 h
786-0 renal = system: 786-0 renal
A549 NSCLC = system: A549 NSCLC
CAKI-1 renal = system: CAKI-1 renal
COLO 205 colon = system: COLO 205 colon
DLD-1 colon = system: DLD-1 colon
DMS 114 small cell lung = system: DMS 114 small cell lung
DMS 273 small cell lung = system: DMS 273 small cell lung
EKVX NSCLC = system: EKVX NSCLC
HCC-2998 colon = system: HCC-2998 colon
HCT-116 colon = system: HCT-116 colon
HCT-15 colon = system: HCT-15 colon
HOP-18 NSCLC = system: HOP-18 NSCLC
IGROV1 ovarian = system: IGROV1 ovarian
KM12 colon = system: KM12 colon
KM20L2 colon = system: KM20L2 colon
LXFL 529 NSCLC = system: LXFL 529 NSCLC
M14 melanoma = system: M14 melanoma
M19-MEL melanoma = system: M19-MEL melanoma
MALME-3M melanoma = system: MALME-3M melanoma
NCI-H226 lung = system: NCI-H226 lung
NCI-H23 lung = system: NCI-H23 lung
NCI-H460 lung = system: NCI-H460 lung
NCI-H522 lung = system: NCI-H522 lung
OVCAR-3 ovarian = system: OVCAR-3 ovarian
OVCAR-4 ovarian = system: OVCAR-4 ovarian
OVCAR-5 ovarian = system: OVCAR-5 ovarian
OVCAR-8 ovarian = system: OVCAR-8 ovarian
RPMI-8226 leukemia = system: RPMI-8226 leukemia
RXF 393 renal = system: RXF 393 renal
RXF-631 renal = system: RXF-631 renal
SF-268 CNS = system: SF-268 CNS
SF-295 CNS = system: SF-295 CNS
SF-539 CNS = system: SF-539 CNS
SK-MEL-2 melanoma = system: SK-MEL-2 melanoma
SK-MEL-28 melanoma = system: SK-MEL-28 melanoma
SN12C renal = system: SN12C renal
SNB-19 CNS = system: SNB-19 CNS
SNB-75 CNS = system: SNB-75 CNS
SNB-78 CNS = system: SNB-78 CNS
SR leukemia = system: SR leukemia
SW-620 colon = system: SW-620 colon
TK-10 renal = system: TK-10 renal
U251 CNS = system: U251 CNS
UACC-62 melanoma = system: UACC-62 melanoma
UO-31 renal = system: UO-31 renal
A498 renal = system: A498 renal
ACHN renal = system: ACHN renal
CCRF-CEM leukemia = system: CCRF-CEM leukemia
HL-60(TB) leukemia = system: HL-60(TB) leukemia
HOP-62 NSCLC = system: HOP-62 NSCLC
HOP-92 NSCLC = system: HOP-92 NSCLC
HT29 colon = system: HT29 colon
K-562 leukemia = system: K-562 leukemia
LOX IMVI melanoma = system: LOX IMVI melanoma
MOLT-4 leukemia = system: MOLT-4 leukemia
SK-MEL-5 melanoma = system: SK-MEL-5 melanoma
SK-OV-3 ovarian = system: SK-OV-3 ovarian
UACC-257 melanoma = system: UACC-257 melanoma

Structure (SMILES): CCOc1ccc([Se][Se]c2ccc(OCC)cc2)cc1
- TGI (786-0 renal): > 100 µM
- TGI (A549 NSCLC): > 100 µM
- TGI (CAKI-1 renal): 49.6 µM
- TGI (COLO 205 colon): > 100 µM
- TGI (DLD-1 colon): > 100 µM
- TGI (DMS 114 small cell lung): > 100 µM
- TGI (DMS 273 small cell lung): > 100 µM
- TGI (EKVX NSCLC): > 100 µM
- TGI (HCC-2998 colon): > 100 µM
- TGI (HCT-116 colon): > 100 µM
- TGI (HCT-15 colon): > 100 µM
- TGI (HOP-18 NSCLC): > 100 µM
- TGI (IGROV1 ovarian): > 100 µM
- TGI (KM12 colon): > 100 µM
- TGI (KM20L2 colon): > 100 µM
- TGI (LXFL 529 NSCLC): > 100 µM
- TGI (M14 melanoma): > 100 µM
- TGI (M19-MEL melanoma): > 100 µM
- TGI (MALME-3M melanoma): > 100 µM
- TGI (NCI-H226 lung): > 100 µM
- TGI (NCI-H23 lung): 54.9 µM
- TGI (NCI-H460 lung): > 100 µM
- TGI (NCI-H522 lung): > 100 µM
- TGI (OVCAR-3 ovarian): > 100 µM
- TGI (OVCAR-4 ovarian): > 100 µM
- TGI (OVCAR-5 ovarian): > 100 µM
- TGI (OVCAR-8 ovarian): > 100 µM
- TGI (RPMI-8226 leukemia): > 100 µM
- TGI (RXF 393 renal): > 100 µM
- TGI (RXF-631 renal): > 100 µM
- TGI (SF-268 CNS): > 100 µM
- TGI (SF-295 CNS): > 100 µM
- TGI (SF-539 CNS): > 100 µM
- TGI (SK-MEL-2 melanoma): > 100 µM
- TGI (SK-MEL-28 melanoma): > 100 µM
- TGI (SN12C renal): > 100 µM
- TGI (SNB-19 CNS): > 100 µM
- TGI (SNB-75 CNS): > 100 µM
- TGI (SNB-78 CNS): > 100 µM
- TGI (SR leukemia): > 100 µM
- TGI (SW-620 colon): > 100 µM
- TGI (TK-10 renal): > 100 µM
- TGI (U251 CNS): 96.8 µM
- TGI (UACC-62 melanoma): > 100 µM
- TGI (UO-31 renal): > 100 µM

Structure (SMILES): Cc1ccc(-n2c(O)c(C=N)c(=O)n(-c3ccc(C)cc3)c2=O)cc1
- TGI (786-0 renal): > 100 µM
- TGI (A498 renal): > 100 µM
- TGI (A549 NSCLC): > 100 µM
- TGI (ACHN renal): > 100 µM
- TGI (CAKI-1 renal): > 100 µM
- TGI (CCRF-CEM leukemia): > 100 µM
- TGI (COLO 205 colon): > 100 µM
- TGI (DLD-1 colon): > 100 µM
- TGI (DMS 273 small cell lung): > 100 µM
- TGI (EKVX NSCLC): > 100 µM
- TGI (HCT-116 colon): > 100 µM
- TGI (HCT-15 colon): > 100 µM
- TGI (HL-60(TB) leukemia): > 100 µM
- TGI (HOP-18 NSCLC): > 100 µM
- TGI (HOP-62 NSCLC): > 100 µM
- TGI (HOP-92 NSCLC): 95.9 µM
- TGI (HT29 colon): > 100 µM
- TGI (IGROV1 ovarian): > 100 µM
- TGI (K-562 leukemia): > 100 µM
- TGI (KM12 colon): > 100 µM
- TGI (KM20L2 colon): > 100 µM
- TGI (LOX IMVI melanoma): > 100 µM
- TGI (LXFL 529 NSCLC): > 100 µM
- TGI (M14 melanoma): > 100 µM
- TGI (M19-MEL melanoma): > 100 µM
- TGI (MALME-3M melanoma): > 100 µM
- TGI (MOLT-4 leukemia): > 100 µM
- TGI (NCI-H226 lung): > 100 µM
- TGI (NCI-H23 lung): > 100 µM
- TGI (NCI-H460 lung): > 100 µM
- TGI (NCI-H522 lung): > 100 µM
- TGI (OVCAR-3 ovarian): > 100 µM
- TGI (OVCAR-4 ovarian): > 100 µM
- TGI (OVCAR-5 ovarian): > 100 µM
- TGI (OVCAR-8 ovarian): > 100 µM
- TGI (RXF 393 renal): > 100 µM
- TGI (RXF-631 renal): > 100 µM
- TGI (SF-268 CNS): > 100 µM
- TGI (SF-295 CNS): > 100 µM
- TGI (SF-539 CNS): > 100 µM
- TGI (SK-MEL-2 melanoma): > 100 µM
- TGI (SK-MEL-28 melanoma): > 100 µM
- TGI (SK-MEL-5 melanoma): > 100 µM
- TGI (SK-OV-3 ovarian): 78.8 µM
- TGI (SN12C renal): > 100 µM
- TGI (SNB-19 CNS): > 100 µM
- TGI (SNB-75 CNS): 75.2 µM
- TGI (SNB-78 CNS): > 100 µM
- TGI (SR leukemia): > 100 µM
- TGI (SW-620 colon): > 100 µM
- TGI (TK-10 renal): > 100 µM
- TGI (UACC-257 melanoma): > 100 µM
- TGI (UACC-62 melanoma): > 100 µM
- TGI (UO-31 renal): > 100 µM
